The source of these data is paper PMC7617104 (Biochemical Journal, 2024).

Broadly, the IC50 is the concentration needed to halve the response being measured.

Experiment [1] concerns the target T1, PI3Kα^WT (Homo sapiens, UniProt P42336).
T1 construct: using full length PI3Kα^WT and PI3Kα^H1047R up to 1 μM; made in house; host or cells: Sf9 insect cells (baculovirus)
The experiment in a line: BLI membrane binding assay (immobilised liposomes). Particulars: for effect on P2pY-activated PI3Kα^WT membrane interaction (BLI wavelength shift): 1 µM PI3Kα^WT, 300 s, GSK2126458 4 µM, PIK-75 20 µM, 6 4 µM, 7 10 µM, GDC0032 10 µM, AS252424 10 µM, AMP-PNP 2 mM with 5 mM Mg2+; for Bmax (binding capacity) of PI3Kα^WT membrane interaction in presence of inhibitor: pY activated, inhibitor:protein 4:1, Mean ± SEM. As for the experimental part:
BLI is a label-free dip-and-read method that uses wavelength changes in reflected incidental white light to report on changes in thickness of the lipid vesicles immobilised on a biosensor from protein binding.
(§1) BLI experiments were carried out with a BLItz® System (ForteBIO) using aminopropylsilane (APS) biosensors. The APS biosensors (ForteBIO #18-5045) were hydrated for 15–20 min in either Tris or HEPES liposome buffer. The program option used was Advanced Kinetics. Liposome membrane preparation was performed using a 0.5 mg/ml liposome solution of PIP2: PS: PE: PC: C: S (Avanti polar lipids) in the mass percentages of 5: 20: 45: 15: 10: 5. Liposomes without PIP2 were prepared as PS: PE: PC: C: S in the percentage of […]. Liposomes without PS were prepared as PIP2: PE: PC: C: S in the percentage of 5: 65: 15: 10: 5. […] P2pY and inhibitor, or DMSO only were also added to achieve a final protein concentration of 200 μg/ml, a pY concentration of 10 μM, and total DMSO content of 3%. The mixture was incubated at room temperature for 10 min prior to the protein association experiments. The membrane coated biosensors were first dipped in Buffer D containing 3% DMSO for 30 s to set an initial baseline, and transferred to the protein in the presence or absence of inhibitor. Protein binding was followed for 300 s, and then the biosensors were dipped in Buffer D with 3% DMSO again for 300 s for protein dissociation. […] PI3Kα^M1043I used 0.125, 0.25, 0.5, 1 and 1.57 µM. The results of liposome loading and protein association were then analysed and graphed using GraphPad Prism 6.
Target sequence in this assay (P42336 whole entry): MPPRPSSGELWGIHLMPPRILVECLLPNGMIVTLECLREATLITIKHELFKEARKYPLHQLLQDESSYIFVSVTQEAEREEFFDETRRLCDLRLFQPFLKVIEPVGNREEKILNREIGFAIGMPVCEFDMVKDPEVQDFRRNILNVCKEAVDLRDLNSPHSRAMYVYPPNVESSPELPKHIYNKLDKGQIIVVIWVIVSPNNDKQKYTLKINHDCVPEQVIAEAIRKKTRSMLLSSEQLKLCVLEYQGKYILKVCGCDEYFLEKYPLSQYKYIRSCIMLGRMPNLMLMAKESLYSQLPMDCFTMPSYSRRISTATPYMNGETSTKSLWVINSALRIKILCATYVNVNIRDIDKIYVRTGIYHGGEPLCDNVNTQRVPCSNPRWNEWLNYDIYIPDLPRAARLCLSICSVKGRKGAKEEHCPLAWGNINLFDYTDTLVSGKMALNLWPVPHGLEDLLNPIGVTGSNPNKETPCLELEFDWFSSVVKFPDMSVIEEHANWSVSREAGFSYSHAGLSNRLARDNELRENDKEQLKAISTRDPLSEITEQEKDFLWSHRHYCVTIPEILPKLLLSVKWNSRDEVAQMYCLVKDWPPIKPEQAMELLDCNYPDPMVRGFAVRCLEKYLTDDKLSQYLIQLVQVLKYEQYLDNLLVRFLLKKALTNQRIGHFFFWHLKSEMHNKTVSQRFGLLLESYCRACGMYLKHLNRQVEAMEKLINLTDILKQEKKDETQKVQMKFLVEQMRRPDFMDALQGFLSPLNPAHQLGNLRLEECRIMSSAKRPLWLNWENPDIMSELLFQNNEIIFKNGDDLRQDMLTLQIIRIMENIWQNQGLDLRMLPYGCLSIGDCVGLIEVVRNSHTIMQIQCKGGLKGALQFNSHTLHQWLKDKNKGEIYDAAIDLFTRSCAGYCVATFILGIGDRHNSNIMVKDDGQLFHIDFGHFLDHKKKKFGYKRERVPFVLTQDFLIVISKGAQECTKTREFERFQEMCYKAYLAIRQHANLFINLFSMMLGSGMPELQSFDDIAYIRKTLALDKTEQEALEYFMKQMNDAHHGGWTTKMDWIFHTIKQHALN
Target sequence in this assay (P27986 2-724 partner): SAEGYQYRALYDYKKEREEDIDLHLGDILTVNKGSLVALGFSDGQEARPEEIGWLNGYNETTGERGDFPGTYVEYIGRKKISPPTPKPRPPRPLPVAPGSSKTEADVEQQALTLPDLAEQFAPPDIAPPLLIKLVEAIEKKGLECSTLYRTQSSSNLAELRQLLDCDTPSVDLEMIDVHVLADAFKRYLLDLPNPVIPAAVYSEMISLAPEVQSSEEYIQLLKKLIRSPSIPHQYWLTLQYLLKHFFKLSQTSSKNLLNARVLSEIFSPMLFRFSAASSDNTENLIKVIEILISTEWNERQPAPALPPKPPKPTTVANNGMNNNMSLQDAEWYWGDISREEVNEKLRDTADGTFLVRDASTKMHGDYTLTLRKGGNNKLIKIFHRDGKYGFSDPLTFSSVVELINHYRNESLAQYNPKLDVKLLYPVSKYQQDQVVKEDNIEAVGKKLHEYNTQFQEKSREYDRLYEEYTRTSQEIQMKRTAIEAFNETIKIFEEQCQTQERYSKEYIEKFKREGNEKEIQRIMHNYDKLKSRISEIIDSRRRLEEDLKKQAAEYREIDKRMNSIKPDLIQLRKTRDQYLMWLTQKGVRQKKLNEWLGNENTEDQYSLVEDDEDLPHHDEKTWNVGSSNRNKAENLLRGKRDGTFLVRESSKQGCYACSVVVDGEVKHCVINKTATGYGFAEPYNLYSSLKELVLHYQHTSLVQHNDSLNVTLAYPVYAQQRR

A further experiment deals with T2, PI3Kβ^WT (p110β/p85α) (Homo sapiens, UniProt P42338).
T2 construct: made in house; host or cells: Sf9 insect cells (baculovirus)
The experiment in a line: PI3K HTRF lipid kinase IC50 determination. Format: biochemical. How it is done:
(§2) IC50 values were determined using the PI3K homogenous time-resolved fluorescence assay (Merck Millipore, #33-016) following the manufacturer's instructions as previously described. […] Data was graphed and analysed with Graphpad Prism 6, nonlinear regression with log(inhibitor) vs. response and constraints set at 0% and 100%.
(§3) (1 picture or pasted object on this page, not shown here)
(§4) Enzymes were used at PI3KαWT 40 ng/ml, PI3KβWT as either 400 ng/ml or 300 ng/ml,
(§5) and PI3K δWT was 65 ng/ml. Plates were read on a PHERAStar HTS microplate reader
A general note: TR-FRET usually uses a lanthanide donor and a delayed reading to cut background.

Experiment [2] concerns the target T3, p110γ (Homo sapiens, UniProt P48736).
T3 construct: made in house; host or cells: Sf9 insect cells (baculovirus)
The experiment in a line: PI3K HTRF lipid kinase IC50 determination. The format is biochemical. Particulars: Table S1, this study; a = N=2 individual data shown, b = N=1; read-out: IC50 p110γ WT. How it is done:
as §2, §3

Experiment [3] addresses T1, PI3Kα^WT. Put plainly: FRET membrane binding assay (dansyl-PS liposomes). Particulars: P1pY-activated 0.5 μM PI3Kα^WT; inhibitor 31.25 nM to 2 μM.
Target sequence in this assay (P42336 whole entry): as the sequence (P42336 whole entry) above
Target sequence in this assay (P27986 whole entry partner): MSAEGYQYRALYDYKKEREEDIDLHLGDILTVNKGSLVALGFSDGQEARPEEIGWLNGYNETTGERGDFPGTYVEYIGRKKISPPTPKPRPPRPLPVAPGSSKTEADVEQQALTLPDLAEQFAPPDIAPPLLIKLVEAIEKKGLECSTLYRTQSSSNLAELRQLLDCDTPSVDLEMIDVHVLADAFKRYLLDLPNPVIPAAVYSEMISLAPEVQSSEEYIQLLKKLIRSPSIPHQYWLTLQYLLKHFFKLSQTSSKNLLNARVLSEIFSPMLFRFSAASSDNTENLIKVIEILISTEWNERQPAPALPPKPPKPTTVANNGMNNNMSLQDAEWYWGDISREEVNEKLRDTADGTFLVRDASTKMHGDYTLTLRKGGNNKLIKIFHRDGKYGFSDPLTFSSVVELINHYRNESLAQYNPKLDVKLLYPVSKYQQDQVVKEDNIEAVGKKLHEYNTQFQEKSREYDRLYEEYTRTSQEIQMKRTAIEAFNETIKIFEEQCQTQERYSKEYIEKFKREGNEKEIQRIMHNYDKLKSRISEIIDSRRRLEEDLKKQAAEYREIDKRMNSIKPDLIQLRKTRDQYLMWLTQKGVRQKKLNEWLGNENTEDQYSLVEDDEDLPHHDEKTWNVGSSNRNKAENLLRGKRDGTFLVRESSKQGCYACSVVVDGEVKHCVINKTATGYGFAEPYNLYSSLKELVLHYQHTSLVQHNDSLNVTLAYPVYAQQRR
Procedure: The FRET-based assay directly monitors the interaction by measuring energy transfer from tryptophan residues in PI3Kα to dansyl-labelled phosphatidylserine (PS) lipids embedded within the synthetic membrane.
Liposomes were prepared with PIP2: phosphatidylserine (PS): phosphatidlyethanol (PE): phosphatidylcholine (PC): Cholesterol (C): Sphingomyelin (S): Dansyl PS (Avanti polar lipids) in the percentage of 5: 20: 35: 15: 10: 5: 10. Inhibitors were solubilised in 100% DMSO, and were diluted to 10% DMSO with Buffer C (30 mM HEPES pH 7.5, 50 mM NaCl), before being serially diluted to desired concentrations in 30 mM HEPES pH 7.5, 50 mM NaCl with 10% DMSO. […] Compounds were used at 5-fold the final concentration and 2 μl was added to 5 μl of enzyme in a 384-well plate, the plate was sealed and the mixture was allowed to equilibrate at room temperature for 10 min with shaking at 450 rpm. Liposomes were then added to the mixture to give a final liposome concentration of 50 μg/ml and a final reaction volume of 10 μl, and the plate was incubated at room temperature for 10 min with shaking at 450 rpm. […] The FRET signal was measured as I-I0 (intensity at 520 nm for protein and liposome solution — intensity at 520 nm for liposome only solution). […] The compound only I-I0 was then subtracted from the I-I0 of the protein-compound complex. […] Data were then graphed and analysed with GraphPad Prism 6.
In another experiment the target is T4, PI3Kα^H1047R (Homo sapiens, UniProt P42336, H1047R).
T4 construct: Full length PI3Kα^WT or PI3Kα^H1047R was diluted with Buffer D; made in house; host or cells: Sf9 insect cells (baculovirus)
Put plainly: BLI membrane binding assay (immobilised liposomes). Particulars: pY activated, inhibitor:protein 4:1, Mean ± SEM. As for the experimental part: as §1

A further experiment deals with PI3Kα^E545K (Homo sapiens, UniProt P42336, E545K). Put plainly: BLI membrane binding assay (immobilised liposomes). Particulars: 4 µM inhibitor, 1 µM enzyme, +pY, 300 s. As for the experimental part: (§6) Figure 6. […] The data are shown as Mean ± SD; PI3Kα^WT +pY n = 7; PI3Kα^WT +pY + GSK n = 5; PI3Kα^WT −pY n = 4; PI3Kα^WT −pY + GSK n = 3. (B) Effect of GSK on the BLI wavelength shift (λ) on membrane binding by PI3Kα^WT, the PI3Kα^E545K oncogenic mutant, class IA PI3Kβ^WT and class IA PI3Kδ^WT enzymes. In all experiments inhibitors were tested at 4 µM with 1 µM of the different enzymes and membrane binding was followed by BLI for 300 s.
as §1

A further experiment concerns the target T5, PI3Kβ^WT (Homo sapiens, UniProt P42338).
T5 construct: made in house; host or cells: Sf9 insect cells (baculovirus)
The experiment in a line: BLI membrane binding assay (immobilised liposomes). Particulars: 4 µM inhibitor, 1 µM enzyme, +pY, 300 s. As for the experimental part: as §6, §1

The target of a further experiment is T6, PI3Kδ^WT (Homo sapiens, UniProt O00329).
T6 construct: made in house; host or cells: Sf9 insect cells (baculovirus)
The experiment in a line: BLI membrane binding assay (immobilised liposomes). Particulars: 4 µM inhibitor, 1 µM enzyme, +pY, 300 s. How it is done: as §6, §1

Another experiment has as its target PI3Kα C420R mutant (Homo sapiens, UniProt P42336, C420R). The experiment in a line: BLI membrane binding assay, concentration response. Particulars: P2pY activated; protein to GSK2126458 ratio 1:4. As for the experimental part: as §1, with “6. […]” for “6.”
(§7) membrane binding parameters. (A) Concentration response curves for PI3Kα oncogenic mutant proteins. Data is shown as the Mean ± SEM (number of biosensors for each data point is n≥3). A one site-specific binding model was used to fit the data. The […]
as §3

The target in a further experiment is PI3Kα G1049R mutant (Homo sapiens, UniProt P42336, G1049R). The experiment in a line: BLI membrane binding assay, concentration response. Particulars: P2pY activated; protein to GSK2126458 ratio 1:4. As for the experimental part:
as §1, with “6. […]” for “6.”
as §7, §3

In the next experiment the target is PI3Kα G106V mutant (Homo sapiens, UniProt P42336, G106V). The experiment in a line: BLI membrane binding assay, concentration response. Particulars: P2pY activated; protein to GSK2126458 ratio 1:4. How it is done: as §1, with “6. […]” for “6.”
as §7, §3

A further experiment concerns the target PI3Kα G118D mutant (Homo sapiens, UniProt P42336, G118D). The experiment in a line: BLI membrane binding assay, concentration response. Particulars: P2pY activated; protein to GSK2126458 ratio 1:4. How it is done:
as §1, with “6. […]” for “6.”
as §7, §3

The target in a further experiment is PI3Kα M1043I mutant (Homo sapiens, UniProt P42336, M1043I). Put plainly: BLI membrane binding assay, concentration response. Particulars: P2pY activated; protein to GSK2126458 ratio 1:4. How it is done: as §1, with “6. […]” for “6.”
as §7, §3

The target in the next experiment is PI3Kα N345K mutant (Homo sapiens, UniProt P42336, N345K). The experiment in a line: BLI membrane binding assay, concentration response. Particulars: P2pY activated; protein to GSK2126458 ratio 1:4. As for the experimental part:
as §1, with “6. […]” for “6.”
as §7, §3

In experiment [4] the target is T3, p110γ. Further details: method as in earlier work. Particulars: Table S1, rows marked #; ref S1; read-out: IC50 p110γ WT; cited from earlier work.
A further experiment has as its target T7, PI3Kα^WT (p110α/p85α) (Homo sapiens, UniProt P42336).
T7 construct: made in house; host or cells: Sf9 insect cells (baculovirus)
The experiment in a line: PI3K homogenous time-resolved fluorescence (HTRF) lipid kinase IC50 determination. Format: biochemical. Particulars: HTRF assay using PIP2 as substrate; Mean ± SD, n=2; enzyme 40 ng/ml; read-out: IC50 PI3Kα (Table S3). As for the experimental part:
as §2, §3, §4, §5

The next experiment addresses T8, PI3Kδ^WT (p110δ/p85α) (Homo sapiens, UniProt O00329).
T8 construct: made in house; host or cells: Sf9 insect cells (baculovirus)
The experiment in a line: PI3K HTRF lipid kinase IC50 determination. Format: biochemical. Particulars: HTRF assay using PIP2 as substrate; Mean ± SD, n=2; enzyme 65 ng/ml; read-out: IC50 PI3K (third column of Table S3, probably PI3Kδ). How it is done: as §2, §3, §4, §5

Where “and” joins values, the source holds several entries; their conditions need not be identical. Equal values may be shown once. Read-outs that look alike come from different tables or passages of the source.

T2 sequence (P42338 whole entry, species assumed): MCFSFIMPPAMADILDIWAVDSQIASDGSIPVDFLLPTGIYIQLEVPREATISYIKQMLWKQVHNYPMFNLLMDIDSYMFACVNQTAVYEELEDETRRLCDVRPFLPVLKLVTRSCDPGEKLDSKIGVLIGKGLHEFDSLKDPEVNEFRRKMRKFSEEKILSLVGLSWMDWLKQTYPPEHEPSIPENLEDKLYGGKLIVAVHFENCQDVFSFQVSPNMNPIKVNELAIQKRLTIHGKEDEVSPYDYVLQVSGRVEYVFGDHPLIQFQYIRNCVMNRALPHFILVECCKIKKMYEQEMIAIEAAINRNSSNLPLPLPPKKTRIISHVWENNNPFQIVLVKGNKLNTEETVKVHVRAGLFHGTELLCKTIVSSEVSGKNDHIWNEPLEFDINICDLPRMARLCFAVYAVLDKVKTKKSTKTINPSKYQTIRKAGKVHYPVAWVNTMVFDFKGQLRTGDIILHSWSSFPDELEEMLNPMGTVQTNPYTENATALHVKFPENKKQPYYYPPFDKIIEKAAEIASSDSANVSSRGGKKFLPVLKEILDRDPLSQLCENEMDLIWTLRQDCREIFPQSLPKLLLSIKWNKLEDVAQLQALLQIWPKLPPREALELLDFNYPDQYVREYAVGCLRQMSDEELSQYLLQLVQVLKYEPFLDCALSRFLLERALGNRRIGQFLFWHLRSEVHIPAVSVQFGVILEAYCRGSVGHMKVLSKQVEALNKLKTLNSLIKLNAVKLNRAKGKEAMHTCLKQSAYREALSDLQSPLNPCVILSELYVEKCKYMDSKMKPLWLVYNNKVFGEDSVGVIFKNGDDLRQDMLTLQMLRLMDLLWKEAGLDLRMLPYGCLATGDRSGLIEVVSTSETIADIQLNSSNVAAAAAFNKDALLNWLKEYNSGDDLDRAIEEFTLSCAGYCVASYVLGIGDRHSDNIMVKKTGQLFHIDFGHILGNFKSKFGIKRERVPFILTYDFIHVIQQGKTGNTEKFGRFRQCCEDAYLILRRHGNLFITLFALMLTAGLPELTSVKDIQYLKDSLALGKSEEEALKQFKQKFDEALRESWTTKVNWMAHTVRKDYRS
T2 sequence (P27986 whole entry partner, species assumed): as the sequence (P27986 whole entry partner) above
T3 sequence (P48736 whole entry, species assumed): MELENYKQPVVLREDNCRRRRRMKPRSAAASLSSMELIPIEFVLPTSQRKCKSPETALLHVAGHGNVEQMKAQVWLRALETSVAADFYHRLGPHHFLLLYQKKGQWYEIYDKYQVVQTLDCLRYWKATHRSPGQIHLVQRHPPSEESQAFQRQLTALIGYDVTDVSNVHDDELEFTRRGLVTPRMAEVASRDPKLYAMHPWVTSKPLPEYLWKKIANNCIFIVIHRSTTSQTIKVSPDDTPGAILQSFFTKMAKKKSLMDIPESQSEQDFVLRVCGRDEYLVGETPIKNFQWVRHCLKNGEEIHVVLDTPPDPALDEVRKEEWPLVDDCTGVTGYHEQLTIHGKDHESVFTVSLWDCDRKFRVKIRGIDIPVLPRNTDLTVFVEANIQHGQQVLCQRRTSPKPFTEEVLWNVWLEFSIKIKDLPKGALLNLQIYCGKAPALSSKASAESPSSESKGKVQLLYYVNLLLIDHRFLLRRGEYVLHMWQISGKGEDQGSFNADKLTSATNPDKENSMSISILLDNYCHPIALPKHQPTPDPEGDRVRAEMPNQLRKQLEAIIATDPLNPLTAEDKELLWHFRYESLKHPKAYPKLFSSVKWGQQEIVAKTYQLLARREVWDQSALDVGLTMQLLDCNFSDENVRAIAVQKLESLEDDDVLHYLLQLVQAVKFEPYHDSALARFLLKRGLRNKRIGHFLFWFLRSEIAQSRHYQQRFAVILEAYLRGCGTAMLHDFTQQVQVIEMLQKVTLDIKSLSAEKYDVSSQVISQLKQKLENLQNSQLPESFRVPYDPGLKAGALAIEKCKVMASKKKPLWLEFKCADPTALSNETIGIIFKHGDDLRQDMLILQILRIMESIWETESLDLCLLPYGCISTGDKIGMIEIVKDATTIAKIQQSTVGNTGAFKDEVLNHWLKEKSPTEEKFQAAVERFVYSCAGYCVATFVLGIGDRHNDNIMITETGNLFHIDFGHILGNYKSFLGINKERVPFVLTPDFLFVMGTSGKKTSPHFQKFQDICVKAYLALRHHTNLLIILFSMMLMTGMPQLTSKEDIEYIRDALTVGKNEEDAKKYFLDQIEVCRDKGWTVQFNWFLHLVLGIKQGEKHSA
T4 sequence (P42336 whole entry H1047R): as the sequence (P42336 whole entry) above, with H1047R counted along it
T4 sequence (P27986 whole entry partner): as the sequence (P27986 whole entry partner) above
T7 sequence (P42336 whole entry): as the sequence (P42336 whole entry) above
T7 sequence (P27986 whole entry partner): as the sequence (P27986 whole entry partner) above
Sequence of PI3Kα N345K mutant (P42336 whole entry N345K): as the sequence (P42336 whole entry) above, with N345K counted along it
Sequence of PI3Kα N345K mutant (P27986 whole entry partner): as the sequence (P27986 whole entry partner) above

Regarding `Nc1ncnc2c1ncn2[C@@H]1O[C@H](COP(=O)(O)OP(=O)(O)NP(=O)(O)O)[C@@H](O)[C@H]1O` [AMP-PNP], at PI3Kα^WT [1], the “effect on P2pY-activated PI3Kα^WT membrane interaction (BLI wavelength shift)” value is given as “could promote the enzymes membrane interaction”.
The same measure, in the same setting: the entry for `O=C1NC(=O)/C(=C/c2ccc(-c3ccc(F)cc3O)o2)S1` [AS252424] is “some evidence of positive modulation”.
Regarding `Cc1nc(-c2cn3c(n2)-c2ccc(-c4cnn(C(C)(C)C(N)=O)c4)cc2OCC3)n(C(C)C)n1` [GDC0032], the IC50 on PI3Kβ^WT (p110β/p85α) (Table S1, this study, a = N=2 individual data shown, b = N=1, read-out: IC50 PI3Kβ WT) is 64 nM and 113 nM; at p110γ [2] it was 4.6 nM and 3.2 nM.
With `COc1ncc(-c2ccc3nccc(-c4ccnnc4)c3c2)cc1NS(=O)(=O)c1ccc(F)cc1F` [GSK2126458], on PI3Kα^WT [3], the “maximum reduction in FRET signal” value came to 85%. Further, the “Bmax (binding capacity) of PI3Kα^WT membrane interaction in presence of inhibitor” value is recorded as 1.5 ± 0.1 λ nm on PI3Kα^WT [1] (liposomes 0% PIP2 + 20% PS) and 1.9 ± 0.1 λ nm at PI3Kα^WT [1] (liposomes 5% PIP2 + 20% PS). The “Bmax (binding capacity) of PI3Kα^H1047R membrane interaction in presence of inhibitor” value on PI3Kα^H1047R (liposomes 0% PIP2 + 20% PS) is 4.3 ± 0.3 λ nm; at PI3Kα^H1047R (liposomes 5% PIP2 + 0% PS) it was 4.6 ± 0.3 λ nm; at PI3Kα^H1047R (liposomes 5% PIP2 + 20% PS), 5.0 ± 0.2 λ nm. Also, the “effect on PI3Kα^E545K membrane interaction (BLI)” value at PI3Kα^E545K is given as “insensitive to regulation by GSK2126458”. The “effect on PI3Kβ^WT membrane interaction (BLI)” value on PI3Kβ^WT is “insensitive to GSK2126458”. For the same compound, the “effect on PI3Kδ^WT membrane interaction (BLI)” value at PI3Kδ^WT is reported as “insensitive to GSK2126458”. Besides, on PI3Kα C420R mutant, the “effect on C420R membrane interaction (BLI)” value is recorded as “sensitive to GSK2126458, with effects on the membrane interaction capacity”. The “effect on G1049R membrane interaction capacity (BLI)” value at PI3Kα G1049R mutant is on record as “also sensitive to GSK2126458”. In addition, on PI3Kα G106V mutant, the “effect on G106V membrane interaction capacity (BLI)” value is on record as “largest decrease in capacity of all those tested”. At PI3Kα G118D mutant, the “effect on G118D membrane interaction (BLI)” value was “changes in both capacity and affinity”. For the same compound, at PI3Kα M1043I mutant, the “effect on M1043I membrane interaction capacity (BLI)” value is reported as “also sensitive to GSK2126458”. Also, the “effect on N345K membrane interaction (BLI)” value at PI3Kα N345K mutant was “sensitive to GSK2126458, with effects on the membrane interaction capacity”.
For `Cc1ccc([N+](=O)[O-])cc1S(=O)(=O)N(C)/N=C/c1cnc2ccc(Br)cn12` [PIK-75], the IC50 at p110γ [4] is 43 ± 21 nM.
Take `FC(F)c1nc2ccccc2n1-c1nc(N2CCOCC2)nc(N2CCOCC2)n1` [ZSTK474, 2-(difluoromethyl)-1-[4,6-di(4-morpholinyl)-1,3,5-triazin-2-yl]-1H-benzimidazole]: the “maximum reduction in FRET signal” value on PI3Kα^WT [3] is 50%.
For `COc1ncc(-c2ccc3cccc(-c4ccnnc4)c3c2)cc1NS(=O)(=O)c1ccc(F)cc1F` [compound 6], at PI3Kα^WT (p110α/p85α), the IC50 was 460 ± 170 nM.
With `COc1ncc(-c2ccc(-c3cnc4c(c3)CN(C)C4=O)s2)cc1NS(=O)(=O)c1ccc(F)cc1F` [compound 7], the IC50 stood at 16800 ± 9100 nM at PI3Kα^WT (p110α/p85α); 242000 ± 308000 nM at PI3Kβ^WT (p110β/p85α) (HTRF assay using PIP2 as substrate, Mean ± SD, n=2, enzyme 400 or 300 ng/ml, read-out: IC50 PI3K (second column of Table S3, probably PI3Kβ)); 8600 ± 2100 nM at PI3Kδ^WT (p110δ/p85α). The “effect on P2pY-activated PI3Kα^WT membrane interaction (BLI wavelength shift)” value at PI3Kα^WT [1] is “retained the ability to decrease”.
